According to patent US20030190368A1, “METHODS OF DIAGNOSIS AND TRIAGE USING CELL ACTIVATION MEASURES” (priority 1998, published 2003):

Columns and labels:
Assay type in all cases: cell-based
human neutrophils [1] = test: Lucigenin-enhanced superoxide chemiluminescence of human plasma / isolated neutrophils; details: for superoxide chemiluminescence of isolated neutrophils alone (no plasma): neutrophils in PBS, fMLP 10^-6 M, PAF 10^-6, homogenate 1 ml; for chemiluminescence in cell-free plasma: plasma filtered 1 um; for plasma chemiluminescence activation by pancreatic proteases: trypsin 1000 U/ml, chymotrypsin 100 U/ml, 155×10^3 neutrophils/ml plasma
Description: Human blood was collected in heparinized Vacutainer tubes (10 ml) and centrifuged at 500 G for 10 minutes. Plasma was collected and 3 ml were mixed with lucigenin (N,N′-dimethyl-9,9′-bisacridinium […]) (Sigma Chemical CO., St. Louis, Mo.) (1 ml of a 1 mM stock solution in deinozed water, final concentration […], near optimal concentration as determined by Ohoi, et al (26)) for each measurement in small petri dishes (60 mm diameter). In later modifications of the test, a 25 mm diameter polyurethane disk was placed inside the petri dishes to reduce the vessel diameter, and subsequently, the reagent requirements to 1 ml plasma mixed with 0.75 ml lucigenin (1 mM stock solution) and only 100 μl of an activator. […] Six Vacutainer tubes were normally collected from healthy volunteers. This volume gives approximately 8 measurements using the original configuration (3 ml plasma/measurement) and up to 25 measurements with the modified system (1 ml/measurement). When measuring whole blood samples, 3 ml of whole blood were subsitituted for 3 ml of plasma.
A standard neutrophil isolation procedure was used as described in Example 2 or pseudopod formation tests. Human blood from healthy volunteers (approximately 60 ml) was collected in heparinized Vacutainer tubes and transferred to a 60 ml syringe where it was sedimented on ice for 40-60 minutes. It is important that heparin and not EDTA ([…]) be used as an antocoagulant, since the calcium-chelating properties of EDTA can suppress neutrophil activation. The neutrophil-rich plasma layer was collected and layered onto 3.5 ml Histopaque (Sigma Diagnostics, St. Louis, Mo.) in 12 ml polypropylene centrifuge tubes (17×100 mm, Falcon, Shrewsbury, Mass.) and centrifuged at 600 G for 20 minutes. The sedimented neutrophils and red blood cells were then gently resuspended in 2 ml PBS (phosphate buffer solution). The resuspeneded cells were carefully layered onto 2.5 ml of a 55% isotonic Percoll solution (Sigma Diagnostics, St. Louis, Mo.) and 2.5 ml of a 74% isotonic Percoll solution in deionized water. This suspension was centrifuged at 600 G for 15 minutes and the middle granulyte layer was removed and resuspended in PBS to achieve a concentration of 10^6 neutrophils/ml.
For standard plasma measurements (e.g., low molecular weight fractions and whole pancreatic homogenates) human blood from healthy volunteers (approximately 60 ml) was collected in heparinized Vacutainer tubes and centrifuged for 10 minutes at 500 g. The plasma layer, including the buffy coat was carefully decanted using a steril transfer pipette. This fraction was then warmed to room temperature and plasma measurements were obtained. Plasma was diluted with sterile saline to achieve a plasma neutrophil concentration of 120×10^3 neutrophil/ml.
For experiments with different plasma concentrations versus neotrophil activators, measurements were made using isolated neutrophils, isolated neutrophils in 10% and 30% autologous plasma, and neutrophil-free plasma (filtered with 1 um filter and verified by cell count).
Cell-free plasma was obtained by filtering sedimented plasma through a 1 um filter (Whatman 6780-2510, Swedesboro, N.J.). The filtered plasma was visually verified to be cell free by placing an aliquot on a microscope slide and examining in detail at 400×. For experiments with different percentages of added plasma, 5 ml total volumes were made consisting of 1 ml lucigenin (1 mM), 1 ml activator, and either 3 ml suspended neutrophils, 2 ml suspended neutrophils plus 1 ml cell-free plasma mixed in PBS necessary for either 10% or 30% total plasma concentration, or 3 ml cell-free plasma. Activators (1 ml) were added via an injection port to the mixture at time t=0 seconds. […]

[2] = test system: isolated naive human neutrophils; test: Pseudopod formation test: protease inhibitors against pancreatic homogenate-induced neutrophil activation; details: for percent neutrophil pseudopod formation (activation) by rat pancreatic homogenate in presence of protease inhibitor: neutrophils preincubated 10 min with inhibitor (PMSF 1 mM; Complete 1 tablet/20 ml; Benzamidine 1150 μM; Futhan 0.1 mg/ml; aprotinin 20 μM), then homogenate 10 min, homogenate alone 85.1±11.5%
Description: (§1) For the pseudopod assay, venous blood is collected in heparinized tubes from healthy human volunteers and put on ice. It is important that heparin and not EDTA ([…]) be used as an anticoagulant, as the calcium-chelating properties of EDTA can affect neutrophil activation. […] Other chemicals for the Krebs-Henseleit buffer are from Fisher Scientific, Fair Lawn, N.J. The resuspended cells are then gently layered onto 2.5 ml of a 55% isotonic Percoll (Sigmal Chemical Company) solution and 2.5 ml of a 74% isotonic Percoll solution in deionized water. The suspension is centrifuged for 15 minutes at 600 G and the middle granulocyte layer is removed and resuspended in PBS to achieve a concentration of 10^6 neutrophils/ml. 100 μl aliquots of suspended neutrophils are added to 100 μl of test plasma or activating agent. This mixture is mixed and then incubated for 10 minutes at 27° C. After incubation 100 μl of 3% glutaraldehyde (Fisher Scientific) is added to stop the reaction. 100 μl of crystal violet in phosphate (pH: 7.4) buffer is then added to stain leukocyte nuclei on wet mount preparations. Freely suspended neutrophils with pseudopodia are identified by their segmented nuclei and the presence of cytoplasmic granules. One hundred neutrophils are counted. Cells with pseudopod projection greater than about 1 um are considered positive.
Rat homogenate was collected as described in detail in Example 5. Briefly, male Wistar rats (250-350 gm) were housed in a controlled environment and maintained on a standard pellet diet for at least three days before initiation of experimental procedures. Animals were cannulated via the femoral arteries and vein under general anesthesia using pentobarbital (50 mg/kg i.m.). The rats were exsanguinated and the heart, liver, spleen, small intestine, and pancreas removed. The organs were immediately washed and cleaned in cold 0.25 M sucrose solution. Then, the cleaned organs were vigorously homogenized in Krebs-Henseleit solution ([…]). Aliquots were filtered by centrifugation at 500 G for 10 min. Pancreatic homogenates were incubated for 2.5 hours at 38° C., stirred frequently. Incubated pancreatic homogenate as well as controls were tested against naive human donor neutrophils for pseudopod formation as described in Example 2.
To determine whether or not neutrophil activation by pancreatic homogenate is protease dependent, the pseudopod formation test was repeated by preincubation of isolated neutrophils with various protease inhibitors (50 μl) for 10 minutes followed by addition of pancreas homogenate (50 μl) and further incubation for 10 minutes. […] All protease inhibitors were the gift of Dr. Tony E. Hugli of The Scripps Clinic and Research Institute, with the exception of Complete™, an all-purpose protease inhibitor purchased from Boehringer Mannheim, Indianapolis, Ind. One of the components of Complete™ is EDTA (ethylenediaminetetra-acetic acid), a standard anti-coagulant and divalent cation chelator.
To determine whether the protease inhibitors were acting on the pancreatic homogenate or the neutrophils themselves, a new set of neutrophil pseudopod experiments was carried out. […] Appropriate controls were recorded as well as a positive control (10^−7 M fMLP) to determine the washed cells' ability to respond to stimuli. Formyl-methionyl-leucyl-phenylalanine (fMLP) was obtained from Sigma Chemical Company, St. Louis, Mo.

human neutrophils [3] = test: Neutrophil PAF inhibition experiments (pseudopod formation)
[4] = test system: isolated naive human neutrophils; test: Pseudopod formation test: neutrophil activation by organ homogenates, fractions and proteases; details: for percent pseudopod formation, control solution incubated with the additive alone (no organ homogenate): Krebs-Henseleit control incubated with additive at the same concentration, control activation 10.5±2.5%; for direct neutrophil activation by proteases / zymogen fragments (in words): pseudopod formation
Description: as §1
The organ homogenization procedure was similar to the method of Lefer (Glenn et al. (1971) Circ Res 29:338-349, Lefer (1973) Am J. Physiol 224:824-831). Male Wistar rats (250-350 gm) were housed in a controlled environment and maintained on standard pellet diet for at least three days before initiation of experimental procedures. Animals were cannulated via the femoral arteries and vein under general anesthesia using phenobarbital (50 mg/kg i.m.) No heparin was injected other than that needed to ensure open catheter lines (10 U/ml plasma-Lyte). A central incision was made over the abdomen. The rats were exsanguinated and the heart, liver, spleen, small intestine, and pancreas were removed. In two animals a kidney and adrenal gland were removed as well. They were immediately washed and cleaned in cold 0.25 M sucrose solution. The cleaned organs were vigorously homogenized in Krebs-Henseleit solution (1:3 w/v). Homogenate was then further diluted in Krebs-Henseleit solution (1:2 v/v). Aliquots were filtered by centrifugation at 500 G for 10 min and a sample aliquot was stored at 4° C. until assayed. The other fraction was incubated for 2.5 hours at 38° C. with mild stirring and stored at 4° C. until assayed. Incubation of tissue homogenates for this time period at a moderate temperature enhances any enzymatic activity that may be necessary in order to produce a neutrophil activation product. The incubated and non-incubated organ homogenates as well as controls were tested against naive human donor leukocytes for pseudopod formation tests and on whole rat donor blood for the NBT assay. Pseudopod determination was carried out as described in Example 2 using isolated neutrophils in D-PAS combined with homogenate in a 4:1 ratio. Nitroblue tetrazolium reduction by leukocytes due to superoxide in rat homogenate assays was also tested using the NBT procedure described in Example 2, with the application of 25 μl of homogenate to donor blood. The NBT assays for porcine homogenate activity were measured using the slightly modified NBT protocol with the crystal violet stain, also detailed in Example 2. […]

1-O-alkyl-2-acetyl-sn-glycero-3-phosphocholine [PAF]
superoxide chemiluminescence of isolated neutrophils alone (no plasma) (human neutrophils [1]): likewise unreactive
chemiluminescence in cell-free plasma (human neutrophils [1]): unreactive

N=C(N)c1ccccc1 [Benzamidine]
percent neutrophil pseudopod formation (activation) by rat pancreatic homogenate in presence of protease inhibitor [2]: 41.5±24.6%

O=S(=O)(F)Cc1ccccc1 [PMSF, Phenylmethylsulfonyl fluoride]
percent neutrophil pseudopod formation (activation) by rat pancreatic homogenate in presence of protease inhibitor [2]: 40.8±12.9%

Cc1nnc2n1-c1sc3c(c1C(c1ccccc1Cl)=NC2)CC(C(=O)N1CCOCC1)C3 (centres unmarked) [WEB 2170]
reduction of neutrophil activation by pancreatic or trypsin-incubated homogenates (human neutrophils [3]; 5 μM, 50 μM, 500 μM): largely ineffective

CSCC[C@H](NC=O)C(=O)N[C@@H](CC(C)C)C(=O)N[C@@H](Cc1ccccc1)C(=O)O [fMLP, Formyl-methionyl-leucyl-phenylalanine]
superoxide chemiluminescence of isolated neutrophils alone (no plasma) (human neutrophils [1]): not particularly reactive
chemiluminescence in cell-free plasma (human neutrophils [1]): unreactive
percent activation of twice-washed neutrophils by activator ([2]; no inhibitor, pancreatic homogenate 50 μl (Control group) or fMLP 10^-7 M (positive control)): 74%

Phospholipase A2: from bovine pancreas, also degrades PAF
intrinsic effect on neutrophils (human neutrophils [3]; 1, 10, 20 U/ml): neutrophil stimulatory properties

aprotinin
percent neutrophil pseudopod formation (activation) by rat pancreatic homogenate in presence of protease inhibitor [2]: 51±17.2%

chymotrypsin
plasma chemiluminescence activation by pancreatic proteases (human neutrophils [1]): little activation
percent pseudopod formation, control solution incubated with the additive alone (no organ homogenate) [4]: 42%
direct neutrophil activation by proteases / zymogen fragments (in words) [4]: did not result in neutrophil activation

B1: trypsin: serine protease, Type 11-S from porcine pancreas (protein, UniProt P00761 9-231, looked up)
Trypsin: IVGGYTCAANSIPYQVSLNSGSHFCGGSLINSQWVVSAAHCYKSRIQVRLGEHNIDVLEGNEQFINAAKIITHPNFNGNTLDNDIMLIKLSSPATLNSRVATVSLPRSCAAAGTECLISGWGNTKSSGSSYPSLLQCLKAPVLSDSSCKSSYPGQITGNMICVGFLEGGKDSCQGDSGGPVVCNGQLQGIVSWGYGCAQKNKPGVYTKVCNYVNWIQQTIAAN
plasma chemiluminescence activation by pancreatic proteases (human neutrophils [1]): little activation
percent pseudopod formation, control solution incubated with the additive alone (no organ homogenate) [4]: 8.5±0.8%
direct neutrophil activation by proteases / zymogen fragments (in words) [4]: did not result in neutrophil activation

B2: trypsinogen: trypsin precursor from bovine pancreas (protein, UniProt P00760 18-246, looked up)
pro-form: VDDDDKIVGGYTCGANTVPYQVSLNSGYHFCGGSLINSQWVVSAAHCYKSGIQVRLGEDNINVVEGNEQFISASKSIVHPSYNSNTLNNDIMLIKLKSAASLNSRVASISLPTSCASAGTQCLISGWGNTKSSGTSYPDVLKCLKAPILSDSSCKSAYPGQITSNMFCAGYLEGGKDSCQGDSGGPVVCSGKLQGIVSWGSGCAQKNKPGVYTKVCNYVSWIKQTIASN
modifications: pro-form
notes: trypsin precursor from bovine pancreas
direct neutrophil activation by proteases / zymogen fragments (in words) [4]: not stimulatory towards neutrophils
